Legend:
Type in all cases: cell-based, human
[1] = test system: Cells from Nasopharynx Carcinoma Explant; assay: In vitro short-term chemosensitivity assay (MTT); details: Table 1, 24 h
Protocol: (§1) The effects of L-aC on cells from 4 primitive epidermoid carcinomas of the larynx and 1 primitive undifferentiated carcinoma of the nasopharynx were tested.
(§2) Tissue fragments from the tumour mass were mechanically dissociated in Hank's solutions adding an antibiotic and an antifungal to obtain a cell monosuspension free of agglomerates. The resulting suspension was centrifuged at 1200 rpm for 5 minutes and the pellet was resuspended in MEM culture medium supplemented with 10% of patient serum, to obtain a concentration of 10^5 cells/ml. Subsequently, 180 μl of the resulting suspension were dispensed in microplate wells and incubated under 5% CO2 atmosphere at 37° C. for 3 days. After that, the antitumor medicaments were added in the amount of 20 μl for each well, at a concentration of 0.1×, 1× and 10× the maximum serum concentrations that can usually be reached in clinical practice. 24 h after the beginning of the exposure to the antitumour medicament, 100 μl of MTT were added, and after 4 h, a further 150 μl of dimethylsulfoxide were added.
(§3) The optical density was evaluated by a Uniscan microspectrophotometer with a […] wavelength filter. Cytotoxicity was evaluated as percentage of the optical density of the treated sample compared with the optical density of the control.
(§4) Bleomycin (BLEC), […] (CDDP), 5-fluoruracil (5-FU), vincristine (VCR), epidoxorubicin (Epi-Dx) and methotrexate (MTX) were tested for comparison purposes.
(§5) L-aC was tested at the following concentrations: 0.2-2-20 mg/ml.
(§6) In vitro short-term chemosensitivity assay (according to Hill and coll.)
(§7) (Cell Vitality Percentage After Exposure to the Antitumoral)—Raw Data
(Cells from Nasopharynx Carcinoma Explant)

[2] = test system: Cells from Larynx Carcinoma Explant; assay: In vitro short-term chemosensitivity assay (MTT)
Protocol: as §1, §2, §3, §4, §5, §6, §7
(Cells from Larynx Carcinoma Explant)

[3] = test system: cells from 4 primitive epidermoid carcinomas of the larynx and 1 primitive undifferentiated carcinoma of the nasopharynx; assay: In vitro short-term chemosensitivity assay (MTT), all five explants; details: five explants
Protocol: as §1, §2, §3, §4, §5

[4] = 0.1x maximum clinical serum concentration (L-aC tested at 0.2-2-20 mg/ml)
[5] = 1x maximum clinical serum concentration
[6] = 10x maximum clinical serum concentration

In the case of `COc1cccc2c1C(=O)c1c(O)c3c(c(O)c1C2=O)C[C@@](O)(C(=O)CO)C[C@@H]3O[C@H]1C[C@H](N)[C@@H](O)[C@H](C)O1` [Epi-Dx, epidoxorubicin], the “Cell Vitality Percentage After Exposure” value [1, 4] is reported as 14%, the “Cell Vitality Percentage After Exposure” value [1, 5] is reported as 7.8% and the “Cell Vitality Percentage After Exposure” value [1, 6] is reported as 4.8%. The “Cell Vitality Percentage After Exposure” value ([2]; Table 2 explant, 0.1x) was 59%, the “Cell Vitality Percentage After Exposure” value ([2]; Table 2 explant, 1x) was 21% and the “Cell Vitality Percentage After Exposure” value ([2]; Table 2 explant, 10x) was 7%. The “Cell Vitality Percentage After Exposure” value ([2]; Table 3 explant, 0.1x) was 57%, the “Cell Vitality Percentage After Exposure” value ([2]; Table 3 explant, 1x) was 32% and the “Cell Vitality Percentage After Exposure” value ([2]; Table 3 explant, 10x) was 16%. For the same compound, the “Cell Vitality Percentage After Exposure” value ([2]; Table 4 explant, 0.1x) was 16%, the “Cell Vitality Percentage After Exposure” value ([2]; Table 4 explant, 1x) was 8% and the “Cell Vitality Percentage After Exposure” value ([2]; Table 4 explant, 10x) was 8%. The “Cell Vitality Percentage After Exposure” value ([2]; Table 5 explant, 0.1x) was 60%, the “Cell Vitality Percentage After Exposure” value ([2]; Table 5 explant, 1x) was 21% and the “Cell Vitality Percentage After Exposure” value ([2]; Table 5 explant, 10x) was 18%. The “most active medicaments (cases out of 5)” value [3] was 2/5.
For `N.N.O=C([O-])C1(C(=O)[O-])CCC1.[Pt+2]` [CBP, carboplatin], the “Cell Vitality Percentage After Exposure” value [1, 4] was 7.1%, the “Cell Vitality Percentage After Exposure” value [1, 5] was 7% and the “Cell Vitality Percentage After Exposure” value [1, 6] was 6.5%. The “Cell Vitality Percentage After Exposure” value ([2]; Table 2 explant, 0.1x) was 78%, the “Cell Vitality Percentage After Exposure” value ([2]; Table 2 explant, 1x) was 58% and the “Cell Vitality Percentage After Exposure” value ([2]; Table 2 explant, 10x) was 34%. The “Cell Vitality Percentage After Exposure” value ([2]; Table 3 explant, 0.1x) was 88%, the “Cell Vitality Percentage After Exposure” value ([2]; Table 3 explant, 1x) was 50% and the “Cell Vitality Percentage After Exposure” value ([2]; Table 3 explant, 10x) was 21%. For the same compound, the “Cell Vitality Percentage After Exposure” value ([2]; Table 5 explant, 0.1x) was 72%, the “Cell Vitality Percentage After Exposure” value ([2]; Table 5 explant, 1x) was 53% and the “Cell Vitality Percentage After Exposure” value ([2]; Table 5 explant, 10x) was 45%.
`O=c1[nH]cc(F)c(=O)[nH]1` [5-FU, 5-fluoruracil] was tested, and the “Cell Vitality Percentage After Exposure” value [1, 4] was 43%, the “Cell Vitality Percentage After Exposure” value [1, 5] was 12% and the “Cell Vitality Percentage After Exposure” value [1, 6] was 5.7%. The “Cell Vitality Percentage After Exposure” value ([2]; Table 2 explant, 0.1x) was 53%, the “Cell Vitality Percentage After Exposure” value ([2]; Table 2 explant, 1x) was 38% and the “Cell Vitality Percentage After Exposure” value ([2]; Table 2 explant, 10x) was 13%. The “Cell Vitality Percentage After Exposure” value ([2]; Table 3 explant, 0.1x) was 52%, the “Cell Vitality Percentage After Exposure” value ([2]; Table 3 explant, 1x) was 45% and the “Cell Vitality Percentage After Exposure” value ([2]; Table 3 explant, 10x) was 23%. For the same compound, the “Cell Vitality Percentage After Exposure” value ([2]; Table 4 explant, 0.1x) was 40%, the “Cell Vitality Percentage After Exposure” value ([2]; Table 4 explant, 1x) was 14% and the “Cell Vitality Percentage After Exposure” value ([2]; Table 4 explant, 10x) was 14%. The “Cell Vitality Percentage After Exposure” value ([2]; Table 5 explant, 0.1x) was 55%, the “Cell Vitality Percentage After Exposure” value ([2]; Table 5 explant, 1x) was 13% and the “Cell Vitality Percentage After Exposure” value ([2]; Table 5 explant, 10x) was 8.2%. The “most active medicaments (cases out of 5)” value [3] was 1/5.
In the case of Bleomycin [BLM], the “Cell Vitality Percentage After Exposure” value ([2]; Table 2 explant, 0.1x) is reported as 55%, the “Cell Vitality Percentage After Exposure” value ([2]; Table 2 explant, 1x) is reported as 36% and the “Cell Vitality Percentage After Exposure” value ([2]; Table 2 explant, 10x) is reported as 17%. The “Cell Vitality Percentage After Exposure” value ([2]; Table 3 explant, 0.1x) was 81%, the “Cell Vitality Percentage After Exposure” value ([2]; Table 3 explant, 1x) was 68% and the “Cell Vitality Percentage After Exposure” value ([2]; Table 3 explant, 10x) was 34%. The “Cell Vitality Percentage After Exposure” value ([2]; Table 4 explant, 0.1x) was 82%, the “Cell Vitality Percentage After Exposure” value ([2]; Table 4 explant, 1x) was 79% and the “Cell Vitality Percentage After Exposure” value ([2]; Table 4 explant, 10x) was 62%. For the same compound, the “Cell Vitality Percentage After Exposure” value ([2]; Table 5 explant, 0.1x) was 60%, the “Cell Vitality Percentage After Exposure” value ([2]; Table 5 explant, 1x) was 35% and the “Cell Vitality Percentage After Exposure” value ([2]; Table 5 explant, 10x) was 31%.
In the case of `CC[C@]1(O)C[C@H]2CN(CCc3c([nH]c4ccccc34)[C@@](C(=O)OC)(c3cc4c(cc3OC)N(C=O)[C@H]3[C@@](O)(C(=O)OC)[C@H](OC(C)=O)[C@]5(CC)C=CCN6CC[C@]43[C@@H]65)C2)C1` [VCR, vincristine], the “Cell Vitality Percentage After Exposure” value [1, 4] is reported as 7.8%, the “Cell Vitality Percentage After Exposure” value [1, 5] is reported as 4.6% and the “Cell Vitality Percentage After Exposure” value [1, 6] is reported as 3.8%. The “Cell Vitality Percentage After Exposure” value ([2]; Table 2 explant, 0.1x) was 70%, the “Cell Vitality Percentage After Exposure” value ([2]; Table 2 explant, 1x) was 45% and the “Cell Vitality Percentage After Exposure” value ([2]; Table 2 explant, 10x) was 11%. The “Cell Vitality Percentage After Exposure” value ([2]; Table 3 explant, 0.1x) was 32%, the “Cell Vitality Percentage After Exposure” value ([2]; Table 3 explant, 1x) was 19% and the “Cell Vitality Percentage After Exposure” value ([2]; Table 3 explant, 10x) was 4.8%. The “Cell Vitality Percentage After Exposure” value ([2]; Table 4 explant, 0.1x) was 1.9%, the “Cell Vitality Percentage After Exposure” value ([2]; Table 4 explant, 1x) was 1.3% and the “Cell Vitality Percentage After Exposure” value ([2]; Table 4 explant, 10x) was 1.3%. The “Cell Vitality Percentage After Exposure” value ([2]; Table 5 explant, 0.1x) was 23%, the “Cell Vitality Percentage After Exposure” value ([2]; Table 5 explant, 1x) was 4.2% and the “Cell Vitality Percentage After Exposure” value ([2]; Table 5 explant, 10x) was 2%. For the same compound, the “most active medicaments (cases out of 5)” value [3] was 4/5.
In the case of `CN(Cc1cnc2nc(N)nc(N)c2n1)c1ccc(C(=O)N[C@@H](CCC(=O)O)C(=O)O)cc1` [MTX, methotrexate], the “Cell Vitality Percentage After Exposure” value [1, 4] is reported as 13.5%, the “Cell Vitality Percentage After Exposure” value [1, 5] is reported as 5% and the “Cell Vitality Percentage After Exposure” value [1, 6] is reported as 3.9%. For the same compound, the “Cell Vitality Percentage After Exposure” value ([2]; Table 4 explant, 0.1x) was 18%, the “Cell Vitality Percentage After Exposure” value ([2]; Table 4 explant, 1x) was 4% and the “Cell Vitality Percentage After Exposure” value ([2]; Table 4 explant, 10x) was 3.1%. The “most active medicaments (cases out of 5)” value [3] was 2/5.

Source: US6673839B1, “Pharmaceutical compositions with antitumour activity” (Universita' Degli Studi di Catania, priority 1998, dated 2004)
